Measurements: patent US9040671B2, “Methods for cancer management targeting Co-029” (Institut National de la Sante et de la Recherche Medicale …, priority 2010, dated 2015)

Legend:
Is1-Co029 cells = experiment: 2D cell motility on collagen I by videomicroscopy, Is1-Co029 cells; type: cell-based, human
Experimental: Cells and cell culture. The cell lines Isreco1, Isreco2 and Isreco3 were initially derived from a primary human colon cancer surgical specimen (Isreco1)(Duke's C, class III) and its corresponding liver and peritoneal metastases (Cajot et al., 1997). These cells were cultured in Dulbecco's modified Eagle's medium (DMEM) supplemented with 10% FCS, glutamax and antibiotics (all from Invitrogen). For experiments, tissue culture plastics were coated with rat tail Collagen I (BD Biosciences) for 1 hour at 50 μg/ml and rinsed with PBS.
Construction of the Co-029 and CD81 lentiviral vector and transduction of Isreco1 cells. Since Isreco1 cells were not efficiently transfected by using non retroviral methods we constructed the TRIPΔ3-EF1α-Co029 and TRIPΔ3-EF1α-CD81 plasmids by inserting the human Co029 and the human CD81 cDNA coding sequence in TRIPΔ3-EF1α vectors. […]. Is1-Co029 and Is1-CD81 cells were obtained by transducing Isrecol cells twice with concentrated lentiviral particles. Is1-Co029low cells were obtained following a single transduction.
Videomicroscopy. Analysis of 2D cell motility on collagen I films was performed using phase contrast on an inverted microscope (Axiovert 200; Zeiss,Oberkochen, Germany) equipped with an environmental chamber with 5% CO2 in air at 37° C. The microscope was driven by the Metamorph software (Roper Scientific),and images were recorded with a Coolsnap HQ camera (Roper Scientific). Stacks of phase contrast images were collected every 15 min for 24 h at ×200 magnification. Cell migration was quantified using the manual tracking plugin of ImageJ (Rasband, 2007) Raw data were transfered to Excel for speed calculations and statistical analysis was performed by the non parametric Mann-Whitney test in Graphpad. For each position at least 10 cells were analyzed. Experiments were repeated from 2 to 10 times to verify the robustness of the results and the stability of the measurements.
For silencing experiments, motility measures were performed 48 hours after RNAi treatments. […]

p120-catenin = experiment: Flow cytometry of p120-catenin in permeabilized cells after RNA silencing; type: cell-based, human; settings: Is1-Co029 cells on collagen I, 48 hours after silencing
Experimental: For intracellular cytometry, cells were detached using trypsin or scrapped in PBS (4° C.) then fixed for 20 min at 4° C. with 1% formaldehyde in PBS. After centrifugation, cells were incubated in methanol 100% for 10 min at −20° C. then washed in PBS and stained with 10 μg/ml of primary antibody. After washes in PBS, cells were incubated with 10 μg ml FITC-labelled secondary antibody (Beckman Coulter), washed again three times and immediately analysed.
(§1) RNA silencing. Cells (1-3×10^5 cells in DMEM medium) were reverse transfected with synthetic si-RNA oligonucleotides using Interferrin (Ozyme) according to manufacturer's protocol.
(§2) 6, 12 or 24 well cell culture plates were coated with rat tail collagen I. Plates were rinsed in PBS. One μl of the siRNA (10 μM) oligonucleotide mix was added to 96 μl DMEM without serum and 3-5 μl Interferrin and incubated at room temperature in each well during 20 min to allow formation of transfection complexes. Cells detached by trypsin-EDTA were layered at appropriate concentration in 400 μlDMEM medium with serum (the final concentration of si-RNA was 20 nM).

E-cadherin = experiment: Flow cytometry of surface E-cadherin after RNA silencing; type: cell-based, human; settings: Is1-Co029 cells cultured on collagen I
Experimental: Immunofluorescence. For flow cytometry analysis of cell surface molecules, cells were detached using a non-enzymatic solution (Invitrogen), washed and stained with 10 μg/ml of primary antibody. After washes in culture medium, cells were incubated with 10 μg/ml-1 FITC-labelled secondary antibody (Beckman Coulter), washed again three times and fixed with 1% formaldehyde in PBS. All incubations were performed for 30 min at 4° C. Analysis of cell-surface staining was performed using a FACScalibur flow cytometer (Becton-Dickinson, San Jose, Calif., USA).
as §1, §2

Is1-Co029 tumor cells = experiment: Effect of antiCo-029 antibodies on subcutaneous tumor growth; type: in vivo, mice; settings: 1 mg i.p. biweekly; for Tumor growth inhibition (T/C %): vs PBS control
Experimental: Effect of antiCo-029 antibodies on subcutaneous tumor growth. In order to realize the animal experiments, a large amounts of purified mAbs was prepared. The yield of mAb TS29.2 (IgG2b) was of approximately 5 mg purified mAb/ml ascitis. Mice produce a mean of 10 ml ascitis/mouse.
Ascitis were clarified by centrifugation and 0.45 μm filtered. The mAbs were purified by using the Biosepra MEP HyperCel* Hydrophobic Charge Induction Chromatography (HCIC) Sorbent, dialysed against PBS and the purity checked by gel electrophoresis and Coomassie Blue coloration. Fractions were aliquoted and frozen at −20° C.
The effect of the antibodies on tumor growth was evaluated by subcutaneous implantation of tumor cells issued from colon carcinoma cell lines, followed by repeated injections of monoclonal antibodies with appropriate controls.
Ten Nude mice were injected subcutaneously with 10^7 Is1-Co029 tumor cells and divided in two groups, antibody treated and PBS control. Each group received an i.p. injection of either 1 mg Ts29.2 or the same volume of PBS and biweekly subsequent injections of 1 mg Ts29.2 or PBS i.p., for a total of nine injections. The size of the tumor was determined by the formula (π/6×length×width×thickness).
Tumor growth inhibition (T/C %) was defined as the ratio of the median tumor volume for the treated vs. control group. It will be calculated as T/C %=[(median tumor volume of treated group at day X)/(median tumor volume of control group at day X)]×100.

For “si-Co029: si-RNA to Co-029, GGUAUCCUAGGAGCUGUUUdTdT (SEQ ID NO: 10) (listed as RNA, chemistry not fully specified)”, the “effect on the acceleration of Is1-Co029 cells induced by si-p120, in words” value (Is1-Co029 cells; cells silenced for p120ctn) was “reversed” and the “effect on the increased motility induced by si-Ecad, in words” value (Is1-Co029 cells; co-silencing with si-Ecad) was “suppressed”.

For “si-RhoA: si-RNA to RhoA, GAACUAUGUGGCAGAUAUCdTdT (SEQ ID NO: 23), Dharmacon (listed as RNA, chemistry not fully specified) [reference compound]”, the “effect on motility of Is1-Co029 cells, in words” value (Is1-Co029 cells; sparse cells on collagen I, agent alone) was “same effect on motility as p120-catenin silencing”.

In the case of “si-p120: si-RNA to p120ctn; si-p120a GCCAGAGGUGGUUCGGAUAdTdT (SEQ ID NO: 20) used throughout the study (listed as RNA, chemistry not fully specified)”, the “reduction of the amount of p120ctn” value (p120-catenin) is reported as 80% and the “reduction of surface E-cadherin” value (E-cadherin) is reported as 50%.

B1: Ts29.2: murine monoclonal antibody against Co-029 obtainable from hybridoma CNCM I-4047; VH SEQ ID NO: 1, VL SEQ ID NO: 5 (antibody, V domains shown)
VH: EVKVVESGGGLVQPGGSLRLSCATSGFTFTDYYMSWVRQPPGKALEWLGFIRNRVSGYTTEYSASVQGRFTISRDNSQSILYLQMNTLRAEDSATYYCARDHYGNFAMDYWGQGTSVTVSS
VL: DIQMTQSSSSFSVSLGDRVTITCKASEDIYNRLAWYQQKPGNAPRLLISGATSLETGVPSRFSGSGSGKDYTLSITSLQTEDVASYYCQQYWSTPFTFGSGTKLEIK
modifications: Synthetic VH; Synthetic VL
With B1 the “growth of Is1-Co029 cells (subcutaneous tumor), in words” value (Is1-Co029 tumor cells; Nude mice) was “inhibits significantly”, the “Tumor growth inhibition (T/C %)” value (Is1-Co029 tumor cells; day 43 (J43), nine injections) was 36% and the “Tumor growth inhibition (T/C %)” value (Is1-Co029 tumor cells; day 50 (J50), nine injections) was 35%. For the same molecule, the mean tumor size (Is1-Co029 tumor cells; day 50, nine injections, PBS control 557±141.6) was 195.7±47.7 mm^3.
